Values of other authors in patent US11827443B2, “Aerosol foam dispenser” (The Procter & Gamble Company, priority 2021, dated 2023).

Settings: in water at 20° C.

| Water solubility at 20° C. (weight percent) | SMILES |
| --- | --- |
| 0.8% weight percent | O=C=O [Carbon dioxide] |
| 7% weight percent | COC [Dimethyl ether] |
| <0.01% weight percent | CC(C)C [Isobutane] |
| 0.12 weight percent | [N-]=[N+]=O [Nitrous oxide] |

| SMILES | Water solubility at 20° C. (weight percent) |
| --- | --- |
| CCCC [Butane] | <0.01% weight percent |
| [He] [Helium] | <0.01 weight percent |
